Assay results from patent US11815508B2, “Dynamic BH3 profiling” (Dana-Farber Cancer Institute, Inc., priority 2012, dated 2023).

Tests used:
Assay type in all cases: cell-based, human
SuDHL4 cell line = experiment: miBH3 profile of the SuDHL4 cell line; conditions: response to BH3 peptides
Procedure: FIGS. 14A-14B are a series of bar graphs showing the correlation of miBH3 profiles with known profiles.
Dynamic BH3 profiling can be accomplished at the single cell level by immobilizing cells on a solid surface. Optionally the solid surface is polyamine or poly-lysine coated. Immobilized cells are permeabilized as described above. The cells are then contacted with BH3 peptides and/or test agents. After the cells have been treated for a predetermined period of time such as 45-90 minutes, the cells are fixed and permeabilized by methods known in the art. For example the cells are fixed with formaldehyde and further permeabilized with methanol or triton x-100. Outer membrane permeabilization is determined intracellular staining for molecules from the mitochondrial inter-membrane space and a mitrochondrial marker. Examples of molecules that can be measured include cytochrome c and SMAC/Diablo, Omi, adenylate kinase-2 or apoptotic-inducing factor (AIF). Mitochondrial markers include MnSOD. Stained cells can be counterstained with nuclear stains such as DAPI. Optionally other intracellular and extracellular markers can be measured. Analysis of the cells can be manually accomplished using a microscope or automated for example by using software such as Cellprofiler to locate nuclei.
MicroBH3 (miBH3) is a BH3 profiling method where the measurement of the mitochondrial effect of BH3 peptides have on individual cells by microscopy. To accomplish this, cells are immobilized on polyamine or poly-lysine coated surfaces and treated with low concentrations of digitonin in a mitochondrial buffer to permeabilize the plasma membrane and grant access to the mitochondria without cell disruption. […] Fixed cells by this method can be readily stopped at the fixation step and can be analyzed weeks after acquisition as well as readily re-analyzed if needed.

K562 [1] = experiment: Dynamic BH3 profiling, K562 cells; conditions: for change in depolarization caused by the BIM BH3 peptide following drug treatment: drug exposure 16 hours
Procedure: (§1) The change in depolarization caused by the BIM BH3 peptide following drug treatment is shown. […] Imatinib is a positive control.
(§2) In various methods, sensitivity of a cell to an agent is determined. The methods include contacting a test cell with a test agent. Cell sensitivity to the test agent is determined by contacting the test cell or test cellular component (e.g., mitochondria) exposed to the test agent with standardized concentration of a panel of BH3 domain peptide from the pro-apoptotic BCL-2 family.
(§3) The cell or cellular component is a cancer cell or a cell that is suspected of being cancerous. The cell is permeabilized to permit the BH3 peptides access to the mitochondria. Cells are permeabilized by methods known in the art. For example, the cell are permeabilized by contacting the cell with digitonin, or other art-recognized detergents and cell-permeabilization agents.
(§4) After the cells are permeabilized the cells are treated with the BH3 peptides or test agents. After the cell is treated, mitochondrial outer membrane permeabilization is measured. Outer membrane permeabilization is measured by a number of methods. For example outer membrane permeabilization is measured by loss of mitochondrial membrane potential. Loss of mitochondrial membrane potential is measured for example by treating the cells with a potentiometric or radiometric dye.

K562 [2] = experiment: Cell death by Annexin V/PI, K562 cells; conditions: drug exposure 72 hours
PC9 = experiment: Dynamic BH3 profiling, NSCLC cell line PC9; conditions: gefitinib 1 μM, WZ4002 100 nM, 16 hours; BH3 peptide Bim at low concentrations
Procedure: (§5) In various methods, sensitivity of a cell to an agent is determined. The methods include contacting a test cell with a test agent. Cell sensitivity to the test agent is determined by contacting the test cell or test cellular component (e.g., mitochondria) exposed to the test agent with standardized concentration of a panel of BH3 domain peptide from the pro-apoptotic BCL-2 family. […] The cell or cellular component is a cancer cell or a cell that is suspected of being cancerous. The cell is permeabilized to permit the BH3 peptides access to the mitochondria. Cells are permeabilized by methods known in the art. For example, the cell are permeabilized by contacting the cell with digitonin, or other art-recognized detergents and cell-permeabilization agents. After the cells are permeabilized the cells are treated with the BH3 peptides or test agents. After the cell is treated, mitochondrial outer membrane permeabilization is measured. Outer membrane permeabilization is measured by a number of methods. For example outer membrane permeabilization is measured by loss of mitochondrial membrane potential. Loss of mitochondrial membrane potential is measured for example by treating the cells with a potentiometric or radiometric dye. Three different cell lines were used: PC9, PC9 gefitinib resistant (PC9GR, including the mutation T790M) and PC9GR resistant to WZ4002 (PC9WZR). […]

PC9GR = experiment: Dynamic BH3 profiling, PC9 gefitinib resistant; conditions: gefitinib 1 μM, WZ4002 100 nM, 16 hours; BH3 peptide Bim at low concentrations
Procedure: as §5

PC9WZR = experiment: Dynamic BH3 profiling, PC9GR resistant to WZ4002; conditions: gefitinib 1 μM, WZ4002 100 nM, 16 hours; BH3 peptide Bim at low concentrations
Procedure: as §5

Ku812 [3] = experiment: Dynamic BH3 profiling, Ku812 cells
Procedure: as §1, §2, §3, §4

Ku812 [4] = experiment: Cell death, Ku812 cells

## HQAEVQIARKLQLIADQFHR [BMF]
SuDHL4 cell line
  release of cytochrome c and loss of correlation between cytochrome c and MnSOD channels: Release of cytochrome c and loss of correlation

## Cn1c(=O)n(-c2ccc(C(C)(C)C#N)cc2)c2c3cc(-c4cnc5ccccc5c4)ccc3ncc21 [BEZ235]
K562 [1]
  change in depolarization caused by the BIM BH3 peptide following drug treatment: significant changes
K562 [2]
  cell death response (Annexin V/PI): unexpected killing

## COc1cc(N2CCC(N3CCN(C)CC3)CC2)ccc1Nc1ncc(Cl)c(Nc2ccccc2S(=O)(=O)C(C)C)n1 [TAE-684]
K562 [1]
  change in depolarization caused by the BIM BH3 peptide following drug treatment: significant changes
K562 [2]
  cell death response (Annexin V/PI): unexpected killing

## COc1cc2ncnc(Nc3ccc(F)c(Cl)c3)c2cc1OCCCN1CCOCC1 [gefitinib]
PC9
  sensitivity (change in priming) by dynamic BH3 profiling: sensitive
PC9GR
  sensitivity (change in priming) by dynamic BH3 profiling: insensitive
PC9WZR
  sensitivity (change in priming) by dynamic BH3 profiling: insensitive

## EQWAREIGAQLRRMADDLNA [PUMA]
SuDHL4 cell line
  release of cytochrome c and loss of correlation between cytochrome c and MnSOD channels: Release of cytochrome c and loss of correlation

## Cc1sc2c(c1C)C(c1ccc(Cl)cc1)=N[C@@H](CC(=O)OC(C)(C)C)c1nnc(C)n1-2 [JQ1]
Ku812 [3]; epigenetic modifying agents, imatinib positive control
  priming by dynamic BH3 profiling: increases priming
Ku812 [4]
  cell death: induce cell death

## Cc1ccc(NC(=O)c2ccc(CN3CCN(C)CC3)cc2)cc1Nc1nccc(-c2cccnc2)n1 [imatinib]
K562 [1]
  change in depolarization caused by the BIM BH3 peptide following drug treatment: significant changes
K562 [1]; imatinib 1 μM, 16 h and 8 h
  priming, several BH3 peptides: increase in priming
Ku812 [3]; imatinib 1 μM, 16 h and 8 h
  priming, several BH3 peptides: increase in priming
Ku812 [4]
  cell death: induce cell death

## C=CC(=O)Nc1cccc(Oc2nc(Nc3ccc(N4CCN(C)CC4)cc3OC)ncc2Cl)c1 [WZ4002]
PC9
  sensitivity (change in priming) by dynamic BH3 profiling: sensitive
PC9GR
  sensitivity (change in priming) by dynamic BH3 profiling: sensitive
PC9WZR
  sensitivity (change in priming) by dynamic BH3 profiling: insensitive

## LWAAQRYGRELRRMSDEFEGSFKGL [BAD]
SuDHL4 cell line
  release of cytochrome c and loss of correlation between cytochrome c and MnSOD channels: Release of cytochrome c and loss of correlation
